Measurements as given in PubChem BioAssay (NCI).
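Step 1: Grow cells in 96-well plates. Step 2: Expose to compound for 48 hours at 5 concentrations. Step 3: Interpolate endpoints linearly; if unreached, use highest concentration. Definition used: TGI = concentration required for complete inhibition of growth.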

What was measured:
Assay in all cases: NCI anticancer screen, dose series, 48 h
[1] = test system: 786-0 renal
[2] = test system: A498 renal
[3] = test system: A549 NSCLC
[4] = test system: ACHN renal
[5] = test system: BT-549 breast
[6] = test system: CCRF-CEM leukemia
[7] = test system: COLO 205 colon
[8] = test system: EKVX NSCLC
[9] = test system: HCC-2998 colon
[10] = test system: HCT-116 colon
[11] = test system: HCT-15 colon
[12] = test system: HL-60(TB) leukemia
[13] = test system: HS 578T breast
[14] = test system: HT29 colon
[15] = test system: IGROV1 ovarian
[16] = test system: K-562 leukemia
[17] = test system: LOX IMVI melanoma
[18] = test system: M14 melanoma
[19] = test system: MDA-MB-435
[20] = test system: MDA-N
[21] = test system: NCI-H23 lung
[22] = test system: NCI/ADR-RES ovarian
[23] = test system: OVCAR-5 ovarian
[24] = test system: OVCAR-8 ovarian
[25] = test system: PC-3 prostate
[26] = test system: RPMI-8226 leukemia
[27] = test system: RXF 393 renal
[28] = test system: SF-268 CNS
[29] = test system: SF-539 CNS
[30] = test system: SK-MEL-2 melanoma
[31] = test system: SK-MEL-28 melanoma
[32] = test system: SK-MEL-5 melanoma
[33] = test system: SK-OV-3 ovarian
[34] = test system: SN12C renal
[35] = test system: SNB-19 CNS
[36] = test system: SNB-75 CNS
[37] = test system: SR leukemia
[38] = test system: SW-620 colon
[39] = test system: T-47D breast
[40] = test system: TK-10 renal
[41] = test system: U251 CNS
[42] = test system: UACC-257 melanoma
[43] = test system: UO-31 renal
[44] = test system: CAKI-1 renal
[45] = test system: DU-145 prostate
[46] = test system: HOP-62 NSCLC
[47] = test system: KM12 colon
[48] = test system: MALME-3M melanoma
[49] = test system: MCF7 breast
[50] = test system: MDA-MB-231 breast
[51] = test system: MOLT-4 leukemia
[52] = test system: NCI-H460 lung
[53] = test system: NCI-H522 lung
[54] = test system: OVCAR-3 ovarian
[55] = test system: OVCAR-4 ovarian
[56] = test system: SF-295 CNS
[57] = test system: UACC-62 melanoma
[58] = test system: HOP-92 NSCLC
[59] = test system: NCI-H226 lung

Work on CCOC(=O)C(NC(=O)NCc1ccc(F)cc1)C(F)(F)F (stereo not given) yielded a TGI [1] of over 100 µM, a TGI [2] of over 100 µM and a TGI [3] of over 100 µM. The TGI [4] was over 100 µM, the TGI [5] was over 100 µM and the TGI [6] was over 100 µM. For the same molecule, the TGI [7] was over 100 µM, the TGI [8] was over 100 µM and the TGI [9] was over 100 µM. For the same molecule, the TGI [10] was over 100 µM, the TGI [11] was over 100 µM and the TGI [12] was over 100 µM. For the same molecule, the TGI [13] was over 100 µM, the TGI [14] was over 100 µM and the TGI [15] was over 100 µM. It also gave a TGI [16] of over 100 µM, a TGI [17] of over 100 µM and a TGI [18] of over 100 µM. The TGI [19] was over 100 µM, the TGI [20] was over 100 µM and the TGI [21] was over 100 µM. It also gave a TGI [22] of over 100 µM, a TGI [23] of over 100 µM and a TGI [24] of over 100 µM. For the same molecule, the TGI [25] was over 100 µM, the TGI [26] was over 100 µM and the TGI [27] was over 100 µM. For the same molecule, the TGI [28] was over 100 µM, the TGI [29] was over 100 µM and the TGI [30] was over 100 µM. For the same molecule, the TGI [31] was over 100 µM, the TGI [32] was over 100 µM and the TGI [33] was over 100 µM. It also gave a TGI [34] of over 100 µM, a TGI [35] of over 100 µM and a TGI [36] of over 100 µM. It also gave a TGI [37] of over 100 µM, a TGI [38] of over 100 µM and a TGI [39] of over 100 µM. For the same molecule, the TGI [40] was over 100 µM, the TGI [41] was over 100 µM and the TGI [42] was over 100 µM. It also gave a TGI [43] of over 100 µM.
Molecule COc1nc(C#CCCCC#N)nc(OC)n1 has a TGI [1] of 41.7 µM, a TGI [2] of 37.6 µM and a TGI [3] of 31.9 µM. It also gave a TGI [4] of 21.8 µM, a TGI [5] of 33.1 µM and a TGI [44] of 27.2 µM. For the same molecule, the TGI [7] was over 100 µM, the TGI [45] was 23.3 µM and the TGI [8] was 39.2 µM. The TGI [10] was 41.3 µM, the TGI [11] was 18.3 µM and the TGI [12] was 71.6 µM. The TGI [46] was 48.7 µM, the TGI [13] was over 100 µM and the TGI [14] was over 100 µM. It also gave a TGI [15] of 41.8 µM, a TGI [16] of over 100 µM and a TGI [47] of 36.3 µM. It also gave a TGI [17] of 14.2 µM, a TGI [18] of 47.8 µM and a TGI [48] of 28.5 µM. It also gave a TGI [49] of 22.1 µM, a TGI [50] of 29.3 µM and a TGI [19] of 27.7 µM. It also gave a TGI [20] of 56.1 µM, a TGI [51] of over 100 µM and a TGI [21] of 31.4 µM. For the same molecule, the TGI [52] was 89.1 µM, the TGI [53] was 29.4 µM and the TGI [22] was over 100 µM. For the same molecule, the TGI [54] was 28 µM, the TGI [55] was 17.9 µM and the TGI [23] was 27.8 µM. It also gave a TGI [24] of 61.4 µM, a TGI [25] of 30.9 µM and a TGI [27] of 30.9 µM. It also gave a TGI [28] of 94.4 µM, a TGI [56] of 84.6 µM and a TGI [29] of 53.7 µM. For the same molecule, the TGI [30] was 32.2 µM, the TGI [31] was 34.8 µM and the TGI [32] was 28.2 µM. The TGI [33] was over 100 µM, the TGI [34] was 36.5 µM and the TGI [35] was over 100 µM. The TGI [36] was 75.7 µM, the TGI [37] was over 100 µM and the TGI [38] was 32.5 µM. The TGI [39] was over 100 µM, the TGI [40] was 37.7 µM and the TGI [41] was 26.7 µM. For the same molecule, the TGI [42] was 45.2 µM, the TGI [57] was 22.8 µM and the TGI [43] was 24.9 µM.
For Cc1cc(C)n(C(=O)C(C)Sc2nnc(SC(C)C(=O)n3nc(C)cc3C)s2)n1 (stereo not given), the TGI [1] was over 100 µM, the TGI [2] was over 100 µM and the TGI [3] was over 100 µM. It also gave a TGI [4] of over 100 µM, a TGI [5] of over 100 µM and a TGI [44] of over 100 µM. For the same molecule, the TGI [6] was over 100 µM, the TGI [7] was over 100 µM and the TGI [45] was over 100 µM. The TGI [8] was over 100 µM, the TGI [9] was over 100 µM and the TGI [10] was over 100 µM. It also gave a TGI [11] of over 100 µM, a TGI [12] of over 100 µM and a TGI [46] of over 100 µM. The TGI [58] was over 100 µM, the TGI [13] was over 100 µM and the TGI [14] was over 100 µM. The TGI [15] was over 100 µM, the TGI [16] was over 100 µM and the TGI [47] was over 100 µM. For the same molecule, the TGI [17] was over 100 µM, the TGI [18] was over 100 µM and the TGI [48] was over 100 µM. The TGI [49] was over 100 µM, the TGI [50] was over 100 µM and the TGI [19] was over 100 µM. For the same molecule, the TGI [20] was over 100 µM, the TGI [51] was over 100 µM and the TGI [59] was over 100 µM. For the same molecule, the TGI [21] was over 100 µM, the TGI [52] was over 100 µM and the TGI [22] was over 100 µM. The TGI [54] was over 100 µM, the TGI [55] was over 100 µM and the TGI [23] was over 100 µM. It also gave a TGI [24] of over 100 µM, a TGI [25] of over 100 µM and a TGI [26] of over 100 µM. The TGI [27] was over 100 µM, the TGI [28] was over 100 µM and the TGI [56] was over 100 µM. The TGI [30] was over 100 µM, the TGI [31] was over 100 µM and the TGI [32] was over 100 µM. The TGI [33] was over 100 µM, the TGI [35] was over 100 µM and the TGI [36] was over 100 µM. It also gave a TGI [37] of over 100 µM, a TGI [38] of over 100 µM and a TGI [40] of over 100 µM. The TGI [41] was over 100 µM, the TGI [42] was over 100 µM and the TGI [57] was over 100 µM. It also gave a TGI [43] of over 100 µM.
In the case of CCCCC1Cc2cc(OC)ccc2-c2nc3cc(OC)ccc3n21 (stereo not given) (tested in a mixture with another compound), the TGI [1] is reported as 27.8 µM, the TGI [3] is reported as 27.9 µM and the TGI [4] is reported as 28.4 µM. The TGI [5] was 33.3 µM, the TGI [44] was 38.8 µM and the TGI [6] was 34.1 µM. It also gave a TGI [7] of 18.7 µM, a TGI [45] of 30 µM and a TGI [8] of 25.2 µM. It also gave a TGI [10] of 22.8 µM, a TGI [11] of 11.3 µM and a TGI [12] of 34.9 µM. The TGI [46] was 29.2 µM, the TGI [58] was 17.1 µM and the TGI [13] was 25.3 µM. It also gave a TGI [14] of 22.5 µM, a TGI [15] of 23.1 µM and a TGI [16] of 36.8 µM. The TGI [47] was 43.4 µM, the TGI [17] was 30 µM and the TGI [18] was 28.2 µM. For the same molecule, the TGI [48] was 34.9 µM, the TGI [49] was 33.5 µM and the TGI [50] was 25.7 µM. The TGI [19] was 26.3 µM, the TGI [20] was 27 µM and the TGI [51] was 37 µM. For the same molecule, the TGI [59] was 28.1 µM, the TGI [21] was 27.8 µM and the TGI [52] was 28.7 µM. The TGI [53] was 21.1 µM, the TGI [22] was 26.4 µM and the TGI [54] was 29.8 µM. It also gave a TGI [55] of 18.9 µM, a TGI [23] of 31.4 µM and a TGI [24] of 31.6 µM. For the same molecule, the TGI [25] was 24.7 µM, the TGI [26] was 24.4 µM and the TGI [27] was 30.8 µM. It also gave a TGI [28] of 33.5 µM, a TGI [29] of 29.7 µM and a TGI [32] of 27.4 µM. The TGI [33] was 26.4 µM, the TGI [34] was 27.9 µM and the TGI [35] was 21.5 µM. The TGI [37] was 32.1 µM, the TGI [38] was 27.8 µM and the TGI [39] was 53.8 µM. It also gave a TGI [40] of 35.5 µM, a TGI [41] of 28.3 µM and a TGI [42] of 29.9 µM. For the same molecule, the TGI [57] was 25.5 µM and the TGI [43] was 24.7 µM.
